Assay [1] concerns H295R cells. As to conditions: H295R cells (parental or unmodified); cited from earlier work.
Assay [2] deals with T1, aromatase (CYP19) (Homo sapiens, UniProt P11511).
T1 sequence (P11511 1-503): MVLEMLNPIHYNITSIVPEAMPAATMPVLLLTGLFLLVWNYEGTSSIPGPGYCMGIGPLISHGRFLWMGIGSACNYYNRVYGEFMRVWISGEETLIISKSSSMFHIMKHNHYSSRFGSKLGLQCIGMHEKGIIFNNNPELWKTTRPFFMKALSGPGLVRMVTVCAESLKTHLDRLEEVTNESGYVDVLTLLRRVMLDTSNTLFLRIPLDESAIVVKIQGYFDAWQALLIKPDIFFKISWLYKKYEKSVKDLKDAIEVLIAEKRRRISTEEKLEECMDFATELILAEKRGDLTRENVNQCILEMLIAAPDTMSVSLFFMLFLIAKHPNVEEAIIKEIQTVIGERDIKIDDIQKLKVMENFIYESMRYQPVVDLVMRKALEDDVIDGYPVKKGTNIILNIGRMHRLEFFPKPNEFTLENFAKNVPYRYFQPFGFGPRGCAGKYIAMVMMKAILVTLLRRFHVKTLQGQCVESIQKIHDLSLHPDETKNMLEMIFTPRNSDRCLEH
As to conditions: cited from earlier work.

In assay [3] the target is T2, aromatase (Homo sapiens, UniProt P11511).
T2 construct: endogenous in cells; host or cells: KGN human ovarian tumor cells
T2 sequence (P11511 1-503): T1 sequence (P11511 1-503)
As to conditions: human ovarian tumor cells (KGN); cited from earlier work.

For assay [4] the following is noted: in vivo; cited from earlier work.
Assay [5] relates to ER. As to conditions: cited from earlier work.
For assay [6] the following is noted: cited from earlier work.
Assay [7] relates to estrogen receptor. As to conditions: cited from earlier work.
Assay [8] deals with esterase. As to conditions: in vitro; cited from earlier work.
In assay [9] the test system is H295R cells. The experiment in a line: Chemical exposure, steroid production in unaltered H295R cells. It counts as cell-based, human. As to conditions: 48 h. As to the method:
(§1) For instrumental detection of steroids, culture medium samples were extracted by ethyl acetate/hexane (v/v, 50/50) followed by LC-MS/MS analysis. […] C-d4 was provided by Cambridge (Andover, Mass., USA), other labelled standards were provided by C/D/N Isotope (Pointe-Claire, Quebec, Canada). Test chemicals (e.g. test substances) were obtained from Sigma. […] For all other hormones, chromatography was performed using a nano-pure water and methanol. Sample extract was separated by a 100 mm×2.1 mm Thermo Scientific Betasil C18 column (5 μm pore size) and then analyzed by a triple quadrapole tandem mass spectrometer (Waters, USA). All data were acquired and processed with Analyst Software, Ver. 1.4.1 (ABI-Sciex).
(§2) Cells were exposed to model chemicals in 24-well cell culture plates (COSTAR, Bucks, UK). One ml of cell suspension was added to each well and cells cultured for 24 to 48 h. Cells were exposed to chemicals dissolved in dimethyl sulfoxide (DMSO; Sigma-Aldrich, St. Louis, Mo.). Forskolin (FOR) was obtained from Sigma Chemical Co. (St. Louis, Mo., USA) and Prochloraz (PRO) was purchased from Aldrich (St. Louis, Mo., USA). The culture medium was collected from each well after 48 h and stored at −80° C. until further measurement.

The subject of assay [10] is H295R/CYP21A2-KD cells. As to the kind of experiment: Chemical exposure, steroid production in H295R/CYP21A2-KD cells. It counts as cell-based, human. As to the method: as §1, §2
The subject of assay [11] is female rat primary granulosa cells. As to conditions: cited from earlier work.

`CCC1(c2ccc(N)cc2)CCC(=O)NC1=O` (stereo not drawn) [Aminoglutethimide]: in [1], the “Effect type: estradiol (E2) production” value is “Medium to weak inhibitor of T and E2”; the “Effect type: testosterone (T) production” value is “Medium to weak inhibitor of T and E2”.
For the molecule `CCNc1nc(Cl)nc(NC(C)C)n1` [Atrazine], the “Effect type: estradiol (E2) production” value in assay [1] is recorded as “Weak inducer of E2 production”. Also, the “Effect on aromatase (CYP19) activity in vitro” value (“Effect on aromatase … in vitro” below) in assay [2] is “Aromatase inducer in vitro”.
With `CCCCNC(=O)n1c(NC(=O)OC)nc2ccccc21` [Benomyl], in [1], the “Effect type: estradiol (E2) production” value is given as “inducer or negative for E2 production” and the “Effect type: testosterone (T) production” value is given as “Weak inhibitor of T production; Weak”. For the same molecule, the “Effect on aromatase … in vitro” value in assay [2] is on record as “Aromatase inducer in vitro”. Further, the “Effect on aromatase activity” value in assay [3] is on record as “Has been shown to induce aromatase”.
Consider `CC(C)(c1ccc(O)cc1)c1ccc(O)cc1` [Bisphenol A], for which the Uterrotrophic assay result in assay [4] is given as “estradiol. Tested positive for ER”. In addition, the “ER binding in vitro” value in assay [5] is “estradiol. Tested positive for ER”. For the same molecule, in assay [1], the “Effect type: estradiol (E2) production” value is given as “inducer” and the “Effect type: testosterone (T) production” value is “inhibitor”. In addition, in assay [6], the “Effect on progesterone (synthesis) in vitro” value is “Some evidence that alters”.
On to `C#C[C@]1(O)CC[C@H]2[C@@H]3CCC4=Cc5oncc5C[C@]4(C)[C@H]3CC[C@@]21C` [Danazol], for which, in assay [1], the “Effect type: estradiol (E2) production” value is reported as “medium to strong inhibitor of estradiol” and the “Effect type: testosterone (T) production” value is listed as “Negative for effects on testosterone;”.
`CCCCC(CC)COC(=O)c1ccccc1C(=O)OCC(CC)CCCC` (stereo not drawn) [Di (2-ethylhexyl) phthalate (DEHP), Di (2-ethylhexyl) phthalate]: in assay [1], the “Effect type: estradiol (E2) production” value is “inducer of estradiol in H295R cells”.
For the molecule `CNC(=O)CSP(=S)(OC)OC` [Dimethoate], in assay [1], the “Effect type: estradiol (E2) production” value is “increases testosterone and estradiol”; the “Effect type: testosterone (T) production” value was “increases testosterone and estradiol”. The “Effect on progesterone (synthesis) in vitro” value in [6] is “Has been shown to decrease”. In assay [2], the “Effect on aromatase … in vitro” value was “not affect aromatase activity in vitro;”.
As for `OC(c1ccc(Cl)cc1)(c1cncnc1)c1ccccc1Cl` (stereo not drawn) [Fenarimol], the “Effect type: estradiol (E2) production” value in assay [1] was “not as unequivocal; weak inhibitor of”.
Turning to `CC(C)(C)NC(=O)[C@H]1CC[C@H]2[C@@H]3CC[C@H]4NC(=O)C=C[C@]4(C)[C@H]3CC[C@]12C` [Finasteride], in assay [1], the “Effect type: estradiol (E2) production” value is “negative for effects on estradiol” and the “Effect type: testosterone (T) production” value was “Weak inhibitor of testosterone;”.
For the molecule `O=c1c(-c2ccc(O)cc2)coc2cc(O)cc(O)c12` [Genistein], the Estrogen receptor agonism entry in assay [7] is recorded as “estrogen receptor agonist”. Also, in assay [1], the “Effect type: estradiol (E2) production” value is “Medium inducer of E2 and weak”; the “Effect type: testosterone (T) production” value is on record as “inhibitor of T production. Weak”.
Turning to `CC(=O)N1CCN(c2ccc(OCC3COC(Cn4ccnc4)(c4ccc(Cl)cc4Cl)O3)cc2)CC1` (stereo not drawn) [Ketoconazole], in [1], the “Effect type: estradiol (E2) production” value is “Medium to weak inhibitor of E2”, the “Effect type: progesterone production” value is given as “production; Induces progesterone” and the “Effect type: testosterone (T) production” value is recorded as “Strong inhibitor of T production;”.
`N#Cc1ccc(C(c2ccc(C#N)cc2)n2cncn2)cc1` [Letrozole]: in assay [1], the “Effect type: estradiol (E2) production” value is recorded as “Strong inhibitor of E2 production” and the “Effect type: testosterone (T) production” value was “Weak inhibitor of T production”.
As for `CCSC(=O)N1CCCCCC1` [Molinate], the “Effect type: testosterone (T) production” value in assay [1] is reported as “negative/weak inhibitor of T”. Further, the “Inhibition of esterase activity” value in assay [8] was “vitro, molinate is a poor”.
Take `CCCCOC(=O)c1ccc(O)cc1` [Paraben (Butyl paraben), Butyl paraben]: in assay [1], the “Effect type: estradiol (E2) production” value is “Weak inducer of E2, and weak”; the “Effect type: testosterone (T) production” value is on record as “inhibitor of T production”.
Turning to `CCCN(CCOc1c(Cl)cc(Cl)cc1Cl)C(=O)n1ccnc1` [Prochloraz], in [9], the “Effect on production of E1” value was “inhibited”, the “Effect on production of E2” value is recorded as “inhibited” and the “Effect on production of T” value is “inhibited”. The “Effect on progesterone production” value in [9] (0.1 μM to 10 μM, dose-dependent) is “increased”. Besides, the “Effect on progesterone production” value in assay [10] is on record as “increased”. In assay [10] (H295R/CYP21A2-KD, 48 h), the “Effect on production of E1” value was “inhibited”, the “Effect on production of E2” value is given as “inhibited” and the “Effect on production of T” value is given as “inhibited”. In assay [1], the “Effect type: estradiol (E2) production” value is “Strong inhibitor of T and E2”; the “Effect type: testosterone (T) production” value was “Strong inhibitor of T and E2”.
With `COc1nc(NC(C)C)nc(NC(C)C)n1` [Prometon], in [1], the “Effect type: estradiol (E2) production” value is recorded as “Weak inducer of E2 production;” and the “Effect type: testosterone (T) production” value was “Negative for T”.
As to `CC#C[C@]1(O)CC[C@H]2[C@@H]3CCC4=CC(=O)CCC4=C3[C@@H](c3ccc(N(C)C)cc3)C[C@@]21C` [RU-486/mifepristone, mifepristone], the “ER result (mode of action)” value in [7] is given as “Negative for ER very”. In addition, in assay [1], the “Effect type: estradiol (E2) production” value is given as “medium to strong inducer of estradiol” and the “Effect type: testosterone (T) production” value was “Negative for effects on testosterone;”.
Consider `C[C@]12CC[C@H]3[C@@H](CC[C@@]45O[C@@H]4C(O)=C(C#N)C[C@]35C)[C@@H]1CC[C@@H]2O` [Trilostane], for which, in assay [1], the “Effect type: estradiol (E2) production” value is “Strong inducer of T and E2”; the “Effect type: testosterone (T) production” value is “Strong inducer of T and E2”.
On to `C=CC1(C)OC(=O)N(c2cc(Cl)cc(Cl)c2)C1=O` (stereo not drawn) [Vinclozolin], for which, in [1], the “Effect type: estradiol (E2) production” value was “Weak inducer of and moderate”; the “Effect type: testosterone (T) production” value is recorded as “inhibitor of T production”.
For the molecule `CCCCC(CC)COC(=O)c1ccccc1C(=O)O` (stereo not drawn) [monoethylhexyl phthalate (MEHP), monoethylhexyl phthalate], in [11], the “Effect on estradiol production” value is reported as “(MEHP) has been shown to suppress”.
As to Nonoxynol-9, in assay [1], the “Effect type: estradiol (E2) production” value is “Negative for effects on testosterone” and the “Effect type: testosterone (T) production” value is “Negative for effects on testosterone”.
